The structures appear in SMILES notation.

The conditions of the first data set: cited from earlier work.
`CCC1(c2ccccc2)C(=O)NC(=O)NC1=O` [5-ethyl-5-phenylbarbituric acid]: the “log P0 (permeability, PAMPA-IPM)” value is given as -5.15.

For `CN1CCC[C@H]1c1cccnc1` [nicotine], the “log P0 (permeability, PAMPA-IPM)” value was -4.58. As for `Oc1ccccc1` [phenol], the “log P0 (permeability, PAMPA-IPM)” value is reported as -4.14.

For a further data set the following is noted: pH 7.4.
Method: First, the top part of the skin-PAMPA (PAMPA-Certramide) sandwich, which contains the membrane, was hydrated overnight with the hydration solution. Different buffer solutions at pH 3, 4, 5, 6, 7, and 7.4 were prepared to solve the samples. To prepare them, 25 mL of concentrated PRISMA HTTM was diluted to 1 L with water, and 0.5 M NaOH was added to obtain the desired pH. Above pH 8, the skin-PAMPA membrane becomes degraded [40], so pH 7.4 was the highest pH used in the present work. In order to measure the intrinsic permeability, each sample was dissolved in the buffer solution with a pH that ensured the presence of the neutral form. […] In all instances, the pH of the acceptor compartment was 7.4.
A total of 180 µL of sample solution was placed in the donor compartment, and 200 µL of pH 7.4 buffer was placed in the acceptor compartment.
According to previous studies, in which the conditions in the skin-PAMPA measurements were optimized [40], the skin-PAMPA sandwich was incubated at 32 °C for 4 h. Afterwards, the concentration of the compounds was measured in both the donor and the acceptor plates. Additionally, the initial sample solution was quantified. […] The injection volume was 5 μL, and 3 to 5 replicate measurements were performed per compound. Every well-plate contained only one compound.
When the pH is different on the two sides of the membrane, a gradient-pH is created and the permeation of ionizable molecules can be altered. This gradient-pH implies two different permeability coefficients, one on each direction of the membrane, denoted by the subscript (D→A) or (A→D). Equation (5) has two unknowns, Pe(A→D) and Pe(D→A), so an iterative method has to be used to solve it. To this purpose, two different experiments were carried out for each compound, one with a gradient-pH and the other with an iso-pH, that is, the same pH in both compartments (7.4). For the iso-pH, Pe(A→D) = Pe(D→A).
Finally, Equation (5) was iteratively solved for Pe(D→A). Initially, ra was assumed to be rv, but the ra value was improved after each iteration by using the newly obtained Pe(D→A). The process continued until self-consistency was reached within the precision required (0.001). The Solver tool in Microsoft Excel was used for the iterative process.
In the donor compartment, a pH was used in which the compound was in its neutral form, whereas in the acceptor compartment, the buffer was at pH 7.4.
As for `CC(=O)[C@@]1(O)CC[C@H]2[C@@H]3CCC4=CC(=O)CC[C@]4(C)[C@H]3CC[C@@]21C` [hydroxiprogesterone], the “log P0 (intrinsic permeability, PAMPA-Certramide)” value is -4.70.

As for `C[C@]12CCC(=O)C=C1CC[C@@H]1[C@@H]2CC[C@@]2(C)[C@H]1CC[C@]2(O)C(=O)CO` [corteloxone], the “log P0 (intrinsic permeability, PAMPA-Certramide)” value was -5.45. Same read-out and setting: the same measure for `CCNc1nc(Cl)nc(NC(C)C)n1` [atrazine]: -4.67. Still for that read-out and setting: next, `CCC1(c2ccccc2)C(=O)NC(=O)NC1=O` [5-ethyl-5-phenylbarbituric acid]: -6.05; `COc1ccccc1` [methyl phenyl ether]: -4.34. On the same count and under the same terms, next, `CC(=O)CC(c1ccccc1)c1c(O)c2ccccc2oc1=O` (stereo not drawn) [warfarin]: -4.63; `COC(=O)Cc1ccc(O)cc1` [4-hydroxymethyl phenylacetate]: -5.07.

With `CCC1(CC)C(=O)NC(=O)NC1=O` [5,5-diethylbarbituric acid (barbital), 5,5-diethylbarbituric acid], the “log P0 (intrinsic permeability, PAMPA-Certramide)” value is -5.75. For the molecule `Nc1ccccc1` [aniline], the “log P0 (intrinsic permeability, PAMPA-Certramide)” value was -4.55.

The values are drawn from publication PMC10385989, “Evaluation of the Ability of PAMPA Membranes to Emulate Biological Processes through the Abraham Solvation Parameter Model” (Membranes, 2023).
